Results published in patent publication US20050037294A1, “Stabilized p-phenylenediamine-type photographic color developers in free base form” (priority 2000, published 2005).

Assay: Saturation solubility of color developer free base in solvents and solvent/water mixtures (HPLC and NMR)
Conditions: for CD Free Base Conc. (saturation solubility): ambient temperature, 3% DEHA added; for Solubility in the solvents evaluated (in words): all solvents evaluated, room temperature
Procedure: Representative solvents were selected from each of the different classes of solvents: alcohols, glycols and glycol ethers. A small quantity of a representative preservative, 3% of N,N-dietheylhydroxylamine (DEHA), was added.

CD Free Base Conc. (saturation solubility) (2-Propanol/Water 10:90 (weight:weight))	CD Free Base Conc. (saturation solubility) (2-Propanol/Water 50:50 (weight:weight))	CD Free Base Conc. (saturation solubility) (2-Propanol/Water 90:10 (weight:weight))	Solubility in 2-propanol (in words) (2-propanol)	CD Free Base Conc. (saturation solubility) (Ethanol/Water 10:90 (weight:weight))	CD Free Base Conc. (saturation solubility) (Ethanol/Water 50:50 (weight:weight))	CD Free Base Conc. (saturation solubility) (Ethanol/Water 90:10 (weight:weight))	CD Free Base Conc. (saturation solubility) (Methanol/Water 10:90 (weight:weight))	CD Free Base Conc. (saturation solubility) (Methanol/Water 50:50 (weight:weight))	CD Free Base Conc. (saturation solubility) (Methanol/Water 90:10 (weight:weight))	Solubility in the solvents evaluated (in words)	CD Free Base Conc. (saturation solubility) (solvent 2-Isopropoxyethanol)	CD Free Base Conc. (saturation solubility) (solvent 2-Methyl-1,3-Propanediol)	CD Free Base Conc. (saturation solubility) (solvent 2-Propanol)	CD Free Base Conc. (saturation solubility) (solvent 3-Methoxy-1-Butanol)	CD Free Base Conc. (saturation solubility) (solvent Diethylene Glycol)	CD Free Base Conc. (saturation solubility) (solvent Ethanol)	CD Free Base Conc. (saturation solubility) (solvent Methanol)	CD Free Base Conc. (saturation solubility) (solvent PEG-200)	CD Free Base Conc. (saturation solubility) (solvent PEG-300)	Structure (SMILES)
0.8 weight percent	9.2 weight percent	7.8 weight percent	low solubility	0.6 weight percent	9.0 weight percent	9.7 weight percent	0.7 weight percent	6.8 weight percent	18.9 weight percent	lesser solubility	8.6 weight percent	3.3 weight percent	1.8 weight percent	9.3 weight percent	15.2 weight percent	5.4 weight percent	23.6 weight percent	16.9 weight percent	16.7 weight percent	CCN(CCNS(C)(=O)=O)c1ccc(N)c(C)c1 [CD-3 free base, 4-amino-3-methyl-N-ethyl-N-(2-methanesulfonamidoethyl)aniline]
–	–	–	–	–	–	–	–	–	–	fully miscible	–	–	–	–	–	–	–	–	–	CCN(CC)c1ccc(N)c(C)c1 [CD-2 free base, 4-amino-3-methyl-N,N-diethylaniline]
